From patent US20240067651A1 (Biohaven Therapeutics Ltd., priority 2019, published 2024)

What was measured:
[1] = Stability in Simulated Intestinal Fluid (SIF); format: in vitro ADME; set-up: key: % parent compound remaining relative to 0-minute sample
Method in brief: (§1)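 Stability was tested at 37° C in pepsin-supplemented gastric fluid, pH 1.2, and pancreatin-supplemented intestinal fluid, pH 6.8, using 2 μg/mL final compound over 0–60 minutes. Remaining parent was quantified by LC-MS/MS and expressed as a percentage of time zero.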

[2] = Caco-2 Permeability Assay; format: in vitro ADME, human; conditions: human
Method in brief: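 Caco-2 monolayers cultured 21 days (TEER >600 […]); test article at 10 μM in HBSS/HEPES pH 7.4 transport medium, dosed apical or basolateral, ±Pgp inhibitor. Incubated 90 min at 37 °C; both compartments quantified by LC-MS/MS. Papp (A→B, B→A), efflux ratio and % recovery calculated.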

[3] = Stability in Simulated Gastric Fluid (SGF); format: in vitro ADME; set-up: key: % parent compound remaining relative to 0-minute sample
Method in brief: as §1

Plasma Stability = format: in vitro ADME, human
Method in brief: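 Compounds incubated at 1 μM in fresh human plasma for 1 hour at 37° C, then protein-precipitated with acetonitrile/formic acid containing internal standard. Remaining parent measured by LC-MS/MS in triplicate, expressed as percent of control remaining.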

[4] = % remaining at 1 h in simulated intestinal fluid
[5] = Caco-2, pH 7.4, Caco-2 monolayer
[6] = % remaining at 1 h in simulated gastric fluid
[7] = % remaining at 1 h in human plasma
[8] = simulated intestinal fluid, at 1 h
[9] = simulated gastric fluid, at 1 h
[10] = % remaining at 1 h in simulated intestinal fluid, the 15th table
[11] = Caco-2, pH 7.4, Caco-2 monolayer, the 15th table
[12] = % remaining at 1 h in simulated gastric fluid, the 15th table
[13] = % remaining at 1 h in human plasma, the 15th table
[14] = % @ 1 h (remaining) in simulated intestinal fluid
[15] = % @ 1 h (remaining) in simulated gastric fluid
[16] = % @ 1 h (remaining) in human plasma
[17] = bare number, unit or time not given

CC(C)OCCn1c(=S)[nH]c(=O)c2c1ccn2COC(=O)CCNC(=O)[C@H](CO)NC(=O)OC(C)(C)C.O=C(O)C(F)(F)F [Example 42]
SIF [1, 4]: 75% remaining | Papp at 90 min, 10 µM [2, 5]: 0.507 ×10⁻⁶ cm/s | SGF [3, 6]: 86% remaining | human Plasma stability (Plasma Stability; [7]): 51% remaining

CC(C)OCCn1c(=S)[nH]c(=O)c2c1ccn2COC(=O)CCNC(=O)[C@@H](N)CCc1ccccc1.O=C(O)C(F)(F)F [Example 25]
SIF [1, 4]: 43% remaining | Papp at 90 min, 10 µM [2, 5]: 0.287 ×10⁻⁶ cm/s | SGF [3, 6]: 99% remaining | human Plasma stability (Plasma Stability; [7]): 96% remaining

Cc1ccc(OC(=O)OCn2ccc3c2c(=O)[nH]c(=S)n3CCOC(C)C)cc1 [Example 236]
SIF [1, 8]: 1% remaining at | Papp at 90 min, 10 µM [2, 5]: 0.59 ×10⁻⁶ cm/s | SGF [3, 9]: 53% remaining | human Plasma stability (Plasma Stability; human plasma, at 1 h): 1% remaining

CC(C)OCCn1c(=S)[nH]c(=O)c2c1ccn2C(C)OC(=O)N(C)CC(=O)OC(C)(C)C (centres unmarked) [Example 113, tert-butyl 2-{methyl [(1-{4-oxo-1-[2-(propan-2-yloxy)ethyl]-2-sulfanylidene-1H, 2H,3H,4H,5H-pyrrolo[3,2-d]pyrimidin-5-yl}ethoxy)carbonyl]amino}acetate]
SIF ([1]; % remaining at 1 h, SIF with pancreatin pH 6.8, 2 μg/mL, 37° C.): 96% | Papp at 90 min, 10 µM ([2]; Caco-2, pH 7.4, donor 10 μM, 90 minutes, 37° C., direction not given): 7.86 ×10⁻⁶ cm/s | SGF ([3]; % remaining at 1 h, SGF with pepsin pH 1.2, 2 μg/mL, 37° C.): 44% | human Plasma stability (Plasma Stability; % remaining at 1 h, human plasma, 1 μM, 37° C.): 99%

CCCNC(=O)OCSc1nc(=O)c2c(ccn2COC(=O)NCCC)n1CCOC(C)C [Example 183]
SIF [1, 10]: 99% @ 1 h | Papp at 90 min, 10 µM [2, 11]: 4.59 ×10⁻⁶ cm/s | SGF [3, 12]: 94% @ 1 h | human Plasma stability (Plasma Stability; [13]): 92% @ 1 h

CC(C)OCCn1c(=S)[nH]c(=O)c2c1ccn2COC(=O)CCNC(=O)[C@@H](N)CO.O=C(O)C(F)(F)F [Example 44]
SIF [1, 4]: 1% remaining | Papp at 90 min, 10 µM [2, 5]: < 0.222 ×10⁻⁶ cm/s | SGF [3, 6]: 96% remaining | human Plasma stability (Plasma Stability; [7]): 5% remaining

Cc1ccccc1N(C)C(=O)OCn1c(=O)c2c(ccn2COC(=O)N(C)c2ccccc2C)n(CCOC(C)C)c1=S [Example 244]
SIF [1, 8]: 99% remaining | Papp at 90 min, 10 µM [2, 5]: 7.47 ×10⁻⁶ cm/s | SGF [3, 9]: 98% remaining | human Plasma stability (Plasma Stability; human plasma, at 1 h): 52% remaining

CC(C)C[C@@H](NC(=O)OC(C)(C)C)C(=O)OCn1c(=O)c2c(ccn2COC(=O)[C@@H](CC(C)C)NC(=O)OC(C)(C)C)n(CCOC(C)C)c1=S [Example 319, [3-({[(2R)-2-{[(tert-butoxy)carbonyl]amino}-4-methylpentanoyl]oxy}methyl)-4-oxo-1-[2-(propan-2-yloxy)ethyl]-2-sulfanylidene-1H,2H,3H,4H,5H-pyrrolo[3,2-d]pyrimidin-5-yl]methyl (2R)-2-{[(tert-butoxy)carbonyl]amino}-4-methylpentanoate]
SIF ([1]; % remaining @ 1 h): 0%@ 1 h | Papp at 90 min, 10 µM ([2]; Caco-2, pH 7.4): 10.5 ×10⁻⁶ cm/s | SGF ([3]; % remaining @ 1 h): 34%@ 1 h | human Plasma stability (Plasma Stability; % remaining @ 1 h): 42%@ 1 h

CC(C)C[C@@H](NC(=O)OC(C)(C)C)C(=O)OCCCCC(=O)OCn1ccc2c1c(=O)[nH]c(=S)n2CCOC(C)C [Example 347, 5-oxo-5-({4-oxo-1-[2-(propan-2-yloxy)ethyl]-2-sulfanylidene-1H,2H,3H,4H,5H-pyrrolo[3,2-d]pyrimidin-5-yl}methoxy)pentyl (2R)-2-{[(tert-butoxy)carbonyl]amino}-4-methylpentanoate]
SIF ([1]; % remaining @ 1 h): 4% remaining | Papp at 90 min, 10 µM ([2]; Caco-2, pH 7.4): 1.06 ×10⁻⁶ cm/s | SGF ([3]; % remaining @ 1 h): 98% remaining | human Plasma stability (Plasma Stability; % remaining @ 1 h): 16% remaining

CC(C)OCCn1c(=S)[nH]c(=O)c2c1ccn2COC(=O)CCNC(=O)[C@H](Cc1ccc(O)cc1)NC(=O)OC(C)(C)C.O=C(O)C(F)(F)F [Example 46]
SIF [1, 4]: 100% | Papp at 90 min, 10 µM [2, 5]: 1.12 ×10⁻⁶ cm/s | SGF [3, 6]: 98% remaining | human Plasma stability (Plasma Stability; [7]): 63% remaining

CC(C)OCCn1c(SCOC(=O)N(C)Cc2ccccc2)nc(=O)c2[nH]ccc21.O=C(O)C(F)(F)F [Example 173]
SIF [1, 14]: 99% @ 1 h | Papp at 90 min, 10 µM [2, 5]: 20.5 ×10⁻⁶ cm/s | SGF [3, 15]: 95% @ 1 h | human Plasma stability (Plasma Stability; [16]): 99% @ 1 h

CC(C)OCCn1c(SCOC(=O)N(C)c2ccccc2Cl)nc(=O)c2[nH]ccc21 [Example 240]
SIF [1, 8]: 97% remaining | Papp at 90 min, 10 µM [2, 5]: 15.4 ×10⁻⁶ cm/s | SGF [3, 9]: 99% remaining | human Plasma stability (Plasma Stability; human plasma, at 1 h): 83% remaining

CC(C)OCCn1c(SCOC(=O)N(C)c2ccccc2Cl)nc(=O)c2c1ccn2COC(=O)N(C)c1ccccc1Cl [Example 249]
SIF [1, 8]: 95% remaining | Papp at 90 min, 10 µM [2, 5]: 28.4 ×10⁻⁶ cm/s | SGF [3, 9]: 89% remaining | human Plasma stability (Plasma Stability; human plasma, at 1 h): 98% remaining

CC(C)OCCn1c(=S)[nH]c(=O)c2c1ccn2COC(=O)CCCOC(=O)[C@@H](Cc1ccccc1)NC(=O)OC(C)(C)C [Example 361, {4-oxo-1-[2-(propan-2-yloxy)ethyl]-2-sulfanylidene-1H,2H,3H,4H,5H-pyrrolo[3,2-d]pyrimidin-5-yl}methyl 4-{[(2R)-2-{[(tert-butoxy)carbonyl]amino}-3-phenylpropanoyl]oxy}butanoate]
SIF ([1]; simulated intestinal fluid, remaining at 1 h): 9% remaining | Papp at 90 min, 10 µM [2, 5]: < 0.31 ×10⁻⁶ cm/s | SGF ([3]; simulated gastric fluid, remaining at 1 h): 95% remaining | human Plasma stability (Plasma Stability; human plasma, remaining at 1 h): 8% remaining

C=CCN(C)C(=O)OCSc1nc(=O)c2c(ccn2COC(=O)N(C)CC=C)n1CCOC(C)C.O=C(O)C(F)(F)F [Example 178]
SIF [1, 14]: 75% @ 1 h | Papp at 90 min, 10 µM [2, 5]: 19.4 ×10⁻⁶ cm/s | SGF [3, 15]: 99% @ 1 h | human Plasma stability (Plasma Stability; [16]): 86% @ 1 h

CC(C)OCCn1c(=S)[nH]c(=O)c2c1ccn2COC(=O)CCCCNC(=O)[C@@H](N)CO.O=C(O)C(F)(F)F [Example 43]
SIF [1, 4]: 87% remaining | Papp at 90 min, 10 µM [2, 5]: 0.147 ×10⁻⁶ cm/s | SGF [3, 6]: 92% remaining | human Plasma stability (Plasma Stability; [7]): 16% remaining

CC(C)CNC(=O)OCSc1nc(=O)c2c(ccn2COC(=O)NCC(C)C)n1CCOC(C)C [Example 188]
SIF [1, 10]: 97% @ 1 h | Papp at 90 min, 10 µM [2, 11]: 11.7 ×10⁻⁶ cm/s | SGF [3, 12]: 98% @ 1 h | human Plasma stability (Plasma Stability; [13]): 99% @ 1 h

CC[C@H](C)[C@H](NC(=O)OC(C)(C)C)C(=O)NCCCCC(=O)OCn1ccc2c1c(=O)[nH]c(=S)n2CCOC(C)C [Example 33]
SIF [1, 4]: 78% remaining | Papp at 90 min, 10 µM [2, 5]: 9.47 ×10⁻⁶ cm/s | SGF [3, 6]: 90% remaining | human Plasma stability (Plasma Stability; [7]): 53% remaining

CC(C)C[C@@H](NC(=O)OC(C)(C)C)C(=O)OCSc1nc(=O)c2c(ccn2COC(=O)[C@@H](CC(C)C)NC(=O)OC(C)(C)C)n1CCOC(C)C [Example 318, {[5-({[(2R)-2-{[(tert-butoxy)carbonyl]amino}-4-methylpentanoyl]oxy}methyl)-4-oxo-1-[2-(propan-2-yloxy)ethyl]-1H,4H,5H-pyrrolo[3,2-d]pyrimidin-2-yl]sulfanyl}methyl (2R)-2-{[(tert-butoxy)carbonyl]amino}-4-methylpentanoate]
SIF ([1]; % remaining @ 1 h): 2%@ 1 h | Papp at 90 min, 10 µM ([2]; Caco-2, pH 7.4): 25.4 ×10⁻⁶ cm/s | SGF ([3]; % remaining @ 1 h): 81%@ 1 h | human Plasma stability (Plasma Stability; % remaining @ 1 h): 85%@ 1 h

CC(C)OCCn1c(=S)n(COC(=O)CCCCOC(=O)[C@H](N)C(C)C)c(=O)c2c1ccn2COC(=O)CCCCOC(=O)[C@H](N)C(C)C.O=C(O)C(F)(F)F.O=C(O)C(F)(F)F [Example 339, bis(trifluoroacetic acid) (3-{[(5-{[(2R)-2-amino-3-methylbutanoyl]oxy}pentanoyl)oxy]methyl}-4-oxo-1-[2-(propan-2-yloxy)ethyl]-2-sulfanylidene-1H,2H,3H,4H,5H-pyrrolo[3,2-d]pyrimidin-5-yl)methyl 5-{[(2R)-2-amino-3-methylbutanoyl]oxy}pentanoate]
SIF [1, 17]: 72 | Papp at 90 min, 10 µM ([2]; Caco-2, pH 7.4): 3.86 ×10⁻⁶ cm/s | SGF [3, 17]: 99 | human Plasma stability (Plasma Stability; % remaining @ 1 h): 44% remaining
